# Like-named read-outs stand apart in the source and are kept apart here.
# Assays:
# [1] = tested on: Shigella flexneri 2a; experiment: Minimum Inhibitory Concentration (Table I); type: cell-based; settings: Heart-Infusion Agar
# From the text: (§1) Minimum Inhibitory Concentration of 3',4'-
# (§2) Medium : Heart-Infusion Agar
# [2] = tested on: Staph. aureus 56; experiment: Minimum Inhibitory Concentration (Table I); type: cell-based; settings: Staphylococcus aureus, Heart-Infusion Agar
# From the text: as §1, §2
# [3] = tested on: Escherichia coli N I H J; experiment: Minimum Inhibitory Concentration (Table I); type: cell-based; settings: Heart-Infusion Agar
# From the text: as §1, §2
# [4] = tested on: Pseudomonas aeruginosa Scr.; experiment: Minimum Inhibitory Concentration (Table I); type: cell-based; settings: Heart-Infusion Agar
# From the text: as §1, §2
# [5] = tested on: Salmonela enteritidis; experiment: Minimum Inhibitory Concentration (Table I); type: cell-based; settings: Heart-Infusion Agar
# From the text: as §1, §2
# [6] = tested on: Proteus vulgaris 025; experiment: Minimum Inhibitory Concentration (Table I); type: cell-based; settings: Heart-Infusion Agar
# From the text: as §1, §2
# [7] = tested on: Klebsiella 806; experiment: Minimum Inhibitory Concentration (Table I); type: cell-based; settings: Heart-Infusion Agar
# From the text: as §1, §2
# [8] = tested on: Bacillus subtilis P C I-219; experiment: Minimum Inhibitory Concentration (Table I); type: cell-based; settings: PCI219, Heart-Infusion Agar
# From the text: as §1, §2
# [9] = tested on: Staphylococcus aureus 209P; experiment: Minimum Inhibitory Concentration (Table I); type: cell-based; settings: Heart-Infusion Agar
# From the text: as §1, §2
# [10] = tested on: butirosin-resistant bacteria; experiment: Antibacterial activity against butirosin-resistant bacteria, statement; type: cell-based
# From the text: as §1
# (§3) Mark *means butirosin-resistant bacteria
# as §2
# [11] = tested on: P. aeruginosa clinical isolates (102 strains); experiment: Susceptibility of Clinical Isolates (Table III); type: cell-based; settings: of 102 strains
# From the text: (§4) Susceptibility of Clinical Isolates to 3',4'-
# [12] = tested on: E. coli clinical isolates (125 strains); experiment: Susceptibility of Clinical Isolates (Table III); type: cell-based; settings: of 125 strains
# From the text: as §4
# [13] = tested on: E. coli 665; experiment: Protecting Effects in Mice (Table II); type: in vivo; settings: 2 doses subcutaneously at 0 and 4 hours post-infection, butirosin-resistant strain
# From the text: (§5) Protecting Effects of 3',4'-Dideoxybutirosin A in Mice
# ED50 : mg./kg./dose (2 doses subcutaneously at 0 and
# *Butirosin-resistant strain
# [14] = for Death incidence: mouse, in vivo
# From the text: Acute Toxicities of 3',4'-Dideoxybutirosin A
# Mice : ddY strain, male, 20 ± 0.2 g.
# [15] = tested on: E. coli 665; experiment: Minimum Inhibitory Concentration (Table I); type: cell-based; settings: Escherichia coli, Heart-Infusion Agar, butirosin-resistant bacteria
# From the text: as §1, §3, §2
# [16] = tested on: E. coli 620; experiment: Minimum Inhibitory Concentration (Table I); type: cell-based; settings: Escherichia coli, Heart-Infusion Agar, butirosin-resistant bacteria
# From the text: as §1, §3, §2
# [17] = tested on: Pseudomonas aeruginosa 1055; experiment: Minimum Inhibitory Concentration (Table I); type: cell-based; settings: Heart-Infusion Agar, butirosin-resistant bacteria
# From the text: as §1, §3, §2
# [18] = tested on: gram-positive and -negative bacteria; experiment: Antibacterial activity, general statement; type: cell-based
# [19] = tested on: butirosin sensitive strains; experiment: Antibacterial activity against butirosin sensitive strains, statement; type: cell-based
# From the text: as §1, §2
# [20] = tested on: E. coli 704-1; experiment: Protecting Effects in Mice (Table II); type: in vivo; settings: 2 doses subcutaneously at 0 and 4 hours post-infection
# From the text: as §5
# ED50 : mg./kg./dose (2 doses subcutaneously at 0 and […]
molecule,measurement,setting,value
"NCC[C@H](O)C(=O)N[C@@H]1C[C@H](N)[C@@H](O[C@H]2O[C@H](CN)CC[C@H]2N)[C@H](O[C@@H]2O[C@H](CO)[C@H](O)[C@H]2O)[C@H]1O [3',4'-Dideoxybutirosin A]",MIC,[1],3.1 µg/mL
same,MIC,[2],0.4 µg/mL
same,MIC,[3],0.4 µg/mL
same,MIC,[4],3.1 µg/mL
same,MIC,[5],1.5 µg/mL
same,MIC,[6],0.8 µg/mL
same,MIC,[7],0.8 µg/mL
same,MIC,[8],0.1 µg/mL
same,MIC,[9],0.1 µg/mL
same,activity against butirosin-resistant bacteria,[10],an activity against butirosin -resistant bacteria
same,activity against butirosin-resistant bacteria,"[10]; listed as 3', 4'-dideoxybutirosin A (I)",outstanding activities
same,number of strains with MIC 0.8 mcg./ml.,[11]; MIC 0.8 mcg./ml.,1 strains
same,number of strains with MIC 1.5 mcg./ml.,[11]; MIC 1.5 mcg./ml.,3 strains
same,number of strains with MIC 3.1 mcg./ml.,[11]; MIC 3.1 mcg./ml.,5 strains
same,number of strains with MIC 6.2 mcg./ml.,[11]; MIC 6.2 mcg./ml.,20 strains
same,number of strains with MIC 12.5 mcg./ml.,[11]; MIC 12.5 mcg./ml.,41 strains
same,number of strains with MIC 25 mcg./ml.,[11]; MIC 25 mcg./ml.,21 strains
same,number of strains with MIC 50 mcg./ml.,[11]; MIC 50 mcg./ml.,3 strains
same,number of strains with MIC 100 mcg./ml.,[11]; MIC 100 mcg./ml.,5 strains
same,number of strains with MIC 200 mcg./ml.,[11]; MIC 200 mcg./ml.,2 strains
same,number of strains with MIC >200 mcg./ml.,[11]; MIC >200 mcg./ml.,1 strains
same,number of strains with MIC 0.8 mcg./ml.,[12]; MIC 0.8 mcg./ml.,0 strains
same,number of strains with MIC 1.5 mcg./ml.,[12]; MIC 1.5 mcg./ml.,0 strains
same,number of strains with MIC 3.1 mcg./ml.,[12]; MIC 3.1 mcg./ml.,0 strains
same,number of strains with MIC 6.2 mcg./ml.,[12]; MIC 6.2 mcg./ml.,6 strains
same,number of strains with MIC 12.5 mcg./ml.,[12]; MIC 12.5 mcg./ml.,100 strains
same,number of strains with MIC 25 mcg./ml.,[12]; MIC 25 mcg./ml.,15 strains
same,number of strains with MIC 50 mcg./ml.,[12]; MIC 50 mcg./ml.,2 strains
same,number of strains with MIC 100 mcg./ml.,[12]; MIC 100 mcg./ml.,2 strains
same,number of strains with MIC 200 mcg./ml.,[12]; MIC 200 mcg./ml.,0 strains
same,number of strains with MIC >200 mcg./ml.,[12]; MIC >200 mcg./ml.,0 strains
same,ED50,"[13]; Escherichia coli, 665, sc, read-out: ED50",2.43 mg/kg
same,toxicity,[14]; as compared with the prior similar aminoglycoside antibiotics,considerably low toxicity
same,Death incidence,"[14]; iv, 250 mg/kg",0/3
same,Death incidence,"[14]; iv, 500 mg/kg",1/2
same,Death incidence,"[14]; sc, 2000 mg/kg",0/3
same,MIC,[15],3.1 µg/mL
same,MIC,[16],3.1 µg/mL
same,MIC,[17],6.2 µg/mL
same,antibacterial activities,[18],broad antibacterial activities
same,activities against butirosin sensitive strains,[19],outstanding activities
same,ED50,"[20]; Escherichia coli, 7041, sc, read-out: ED50",2.3 mg/kg
Butirosin [reference compound],ED50,[13],146.3 mg./kg./dose
same,ED50,[20],2.47 mg./kg./dose

# Source: patent US3932382A, “Dideoxybutirosin derivative” (Sankyo Company Limited, priority 1973, dated 1976)
